Experimental data: patent US20230398110A1, “COMPOSITIONS AND METHODS FOR TREATING NON-ALCOHOLIC STEATOHEPATITIS” (ASCENTAGE PHARMA (SUZHOU) CO., LTD., priority 2020, published 2023)

Key:
[1] = tested on: C57BL/6J mice induced with high-fat diet (HFD) and CCl4; experiment: HFD/CCl4 NASH mouse model, liver histology (NAS score, fibrosis); assay type: in vivo
Procedure: Male C57BL/6J mice with an age of 18 weeks were purchased from GemPharmatech Co., Ltd (Nanjing, Jiangsu). Mice were first fed with high-fat diet (HFD) for 11 weeks to induced obesity. Carbon tetrachloride (25% CCl4, 0.5 μl/g) was then intraperitoneally injected twice weekly for 4 consecutive weeks, to induce liver damages, leading to inflammation, cell death and fibrosis. The day of the first carbon tetrachloride injection was dated as day 0. At day 7, the animals were randomized and treatment started. The test article administration and the animal numbers in each group are shown in the following experimental design Table 3.
All animals were euthanatized at day 28 to collect blood and liver samples for biochemical and histological analysis.
Liver tissue from animals in each group were analyzed for NAS scores.
(§1) Specifically, the scores assessed were: • 1) the unweighted sum of the steatosis (0-3); • 2) lobular inflammation (0-3); • 3) hepatocellular ballooning (0-2); and • 4) liver fibrosis score (0-4), after Sirius red staining.
Liver tissues of each group of animals were taken, and NAS scores were analyzed by hematoxylin-eosin (HE) staining, and liver fibrosis was analyzed by Sirius red staining.
After staining, the NAS scores of the prepared samples were evaluated. In hematoxylin-eosin stained sections, NAS scores were evaluated according to the degree of steatosis, inflammatory cell infiltration and […].
After staining, fibrosis of the liver was additionally evaluated. All sections stained with Sirius Red were scanned by an Aperio VERSA 200 Brightfield & Fluorescenc slice scanner. Two fields were randomly selected under a 5×field of view. The two fields covered 85% of the liver tissue area. Quantitative analysis to calculate the area of fibrosis deposition in the slices was performed.
(§2) Prism, version 6, (GraphPad Software Inc., San Diego, CA) was used for all statistical analysis and for graphic presentation.
After drug treatment for 21 days, animals were euthanatized to collect liver samples for pathological analysis.

[2] = tested on: rats with DEN-HFD-CHOL induced non-alcoholic steatohepatitis; experiment: DEN-HFD-CHOL induced NASH rat model, liver histology (NAS score, fibrosis); assay type: in vivo; conditions: 42 days; for NAS score (FIG. 3B) / ballooning (FIG. 3B) / steatosis, lobular inflammation and hepatocellular ballooning (HE-staining of liver tissue, FIG. 3A): Compound 1 10 and 30 mg/kg, GFT505 30 mg/kg
Source text: Male SD rats, with an age of 10 days, were purchased from Vital River Co., Ltd (Beijing).
The rats were given a one-time intraperitoneal injection of diethylnitrosamine (DEN) two weeks after birth, and continued breast milk feeding for two weeks.
After four weeks, a total of 56 male rats were selected and divided into 7 groups according to animal weight. The rats were started on a high-fat, high-cholesterol diet (HFD-CHOL), with a feeding cycle of 12 weeks. Before intraperitoneal injection of DEN, 5 male rats were randomly selected for parallel feeding as a control cohort, which were fed a standard diet and not injected with DEN.
After 7 weeks of HFD-CHOL diet feeding, the animals were randomized and treatment with vehicle or the indicated compound was started. The test article administration and the animal numbers in each group are shown in the following experimental design Table 5.
The body weight of animals was measured at the day of the last administration (the end of the test). After the animal were fasted for 6 hours, all animals were euthanatized to collect blood and liver samples for biochemical and histological analysis.
Liver tissue from animals in each group were analyzed for NAS scores, the unweighted sum of the steatosis (0-3), lobular inflammation (0-3) and hepatocellular ballooning (0-2) scores, after HE-staining, and analyzed for liver fibrosis score (0-4) after Sirius red staining.
as §1, with “Liver tissue from animals in each group were analyzed for NAS scores using the methods disclosed above in Example 16. Specifically,” for “Specifically,”
as §2
After drug treatment for 42 days, animals were euthanatized to collect liver samples for pathological analysis.

Mcl-1 = Mcl-1 (Homo sapiens, UniProt Q07820); experiment: FP saturation binding of fluorescent probe to Mcl-1; conditions: 2 nM probe, read-out: Kd of Flu-BID to Mcl-1
Mcl-1, sequence (Q07820 whole entry): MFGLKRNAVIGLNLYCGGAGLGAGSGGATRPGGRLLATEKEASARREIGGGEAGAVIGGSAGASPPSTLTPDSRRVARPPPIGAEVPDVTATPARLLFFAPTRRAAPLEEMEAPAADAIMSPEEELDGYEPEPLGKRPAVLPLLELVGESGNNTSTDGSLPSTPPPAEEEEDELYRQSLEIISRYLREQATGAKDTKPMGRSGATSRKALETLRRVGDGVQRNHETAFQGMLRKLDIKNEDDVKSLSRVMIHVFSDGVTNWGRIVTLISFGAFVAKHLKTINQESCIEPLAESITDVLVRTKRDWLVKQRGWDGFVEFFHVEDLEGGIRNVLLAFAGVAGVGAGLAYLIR
Procedure: Fluorescence polarization values were measured using an Infinite M-1000 plate reader (Tecan U.S., Research Triangle Park, N.C.) in Microfluor 96-well, black, round-bottom plates (Thermo Scientific). […] Plates were mixed and incubated at room temperature for 1 hour with gentle shaking to assure equilibrium. […] Equilibrium dissociation constants (Kd) were then calculated by fitting the sigmoidal dose-dependent FP increases as a function of protein concentrations using Graphpad Prism 5.0 software (Graphpad Software, San Diego, Calif.).

[3] = Compound 1 50 mg/kg qd p.o., 21 days
[4] = Compound 1 10 and 30 mg/kg vs GFT505 30 mg/kg, qd p.o.

Compound | fibrosis (Sirius red staining, fibrosis score, FIG. 2A/2B) ([1]; Compound 1 50 mg/kg qd p.o. single agent, in comparison to OCA) | ballooning (NAS score analysis, FIG. 1B) [1, 3] | steatosis (NAS score analysis, FIG. 1B) [1, 3] | steatosis, lobular inflammation and hepatocellular ballooning (HE-staining of liver tissue, FIG. 1A) ([1]; Compound 1 50 mg/kg qd p.o., OCA 30 mg/kg qd p.o., alone or combined, 21 days) | anti-inflammation effect compared with OCA alone ([1]; Compound 1 50 mg/kg vs OCA 30 mg/kg, qd p.o., 21 days) | inflammation (NAS score analysis, FIG. 1B) ([1]; Compound 1 50 mg/kg, OCA 30 mg/kg, qd p.o., 21 days) | fibrosis (Sirius red staining, fibrosis score, FIG. 4A/4B) ([2]; Compound 1 10 and 30 mg/kg qd p.o.) | anti-inflammation effects compared with GFT505 [2, 4] | effects on steatosis compared with GFT505 [2, 4] | NAS score (FIG. 3B) ([2]; qd p.o.) | ballooning (FIG. 3B) ([2]; qd p.o.) | steatosis, lobular inflammation and hepatocellular ballooning (HE-staining of liver tissue, FIG. 3A) ([2]; qd p.o.) | Kd (Mcl-1) [nM]
O=C(NS(=O)(=O)c1ccc(NC[C@H]2COCCO2)c([N+](=O)[O-])c1)c1ccc(N2CCN(CC3=C(c4ccc(Cl)cc4)CC4(CCC4)CC3)CC2)cc1Oc1cnc2[nH]ccc2c1 [Compound 1, (S)-N-((4-(((1,4-dioxan-2-yl)methyl)amino)-3-nitrophenyl)sulfonyl)-2-((1H-pyrrolo[2,3-b]pyridin-5-yl)oxy)-4-(4-((6-(4-chlorophenyl)spiro[3.5]non-6-en-7-yl)methyl)piperazin-1-yl)benzamide] | modest effect | modest effects | reduced | alleviated | better anti-inflammation effect than OCA alone | reduced | modest alleviation | improved anti-inflammation effects | more modest effects | significantly reduced | completely abolished | alleviated | 
CSc1ccc(C(=O)/C=C/c2cc(C)c(OC(C)(C)C(=O)O)c(C)c2)cc1 [GFT505, elafibranor, reference compound] |  |  |  |  |  |  |  |  |  | significantly reduced | completely abolished | alleviated | 
Flu-BID: Fluorescein labeled BID (79-99) peptide, fluorescent probe in FP assay for Mcl-1 |  |  |  |  |  |  |  |  |  |  |  |  | 6.9 ± 0.9
